Experimental data published in patent US20250325555A1, “Method of Treating Obesity with a Luteinizing Hormone Receptor Agonist” (ICAHN SCHOOL OF MEDICINE AT MOUNT SINAI, priority 2022, published 2025).

Key:
3T3-L1 adipocytes [1] = assay: oxygen consumption rate (OCR) on Seahorse Xf96 Analyzer; assay type: cell-based, mouse; conditions: pretreated for 1 hour
Description: (§1) 3T3-L1 adipocytes were thus pretreated with ORG 43553 for 1 hour before measuring oxygen consumption rate (OCR) on a Seahorse Xf96 Analyzer. […] ORG 43553 increased OCR at baseline and upon oligomycin exposure, indicating mitochondria proton leak—a surrogate for thermogenesis. To confirm increased energy expenditure in vivo, mice (N=6/group) on high-fat diet were acclimated to metabolic cages for 1 day, before being injected subcutaneously with ORG 43553 (17 mg/kg, blue line) or vehicle and monitored for 48 hours.

adipose LHCGR = biological target: T1, adipose LHCGR (Mus musculus, UniProt P30730); assay: ERK1/2 phosphorylation in differentiated 3T3-L1 adipocytes (Western blot); assay type: cell-based
T1 construct: host or cells: differentiated 3T3-L1 adipocytes
Source text: siRNA KNOCKDOWN: Lentiviral vectors expressing Lhcgr siRNA (ABM 2649609) or siControl (ABM LVP015-G) were used per manufacturer's recommendation.
WESTERN BLOTTING: Proteins were blotted with commercial antibodies (Cell Signaling, Phospho-ERK1/2, 9101S; ERK1/2, 4695S, 1:5000).

3T3-L1 adipocytes [2] = assay: oil droplet accumulation (Oil Red O staining) in 3T3-L1 adipocytes; assay type: cell-based, mouse; conditions: 6 nM, 12 hours
Description: (§2) In order to study the mechanism of LHCGR activation on body fat, 3T3.L1 pre-adipocytes and adipose organoids were used. Oil Red 0 staining can be used to mark lipid-containing vacuoles and quantify cell lipid content. […] The thickness of the “differentiating cell layer” was measured with QuPath-0.2.3.

[3] = test system: C57BL/6 mice fed on high-fat diet; assay: ORG 43553 in C57BL/6 mice on high-fat diet, 9 weeks (Example 6); assay type: in vivo, mouse; conditions: 17 mg/kg subcutaneous
Description: In order to evaluate the effect of treatment with LHCGR agonist ORG 43553 on body fat in mice, 14-week-old C57BL/6 mice (25 mice/group) were treated with subcutaneous injections of vehicle or ORG 43553 (17 mg/kg), and fed on high-fat diet for 9 weeks.

human LHCGR = human LHCGR (Homo sapiens, UniProt P22888); conditions: read-out: EC50, agonistic activity to human LHCGR; cited from earlier work
[4] = test system: organoids derived from 3T3-L1 cells; assay: adipose organoids derived from 3T3-L1 cells, thickness of differentiating cell layer; assay type: cell-based, mouse; conditions: exposed for 3 days, further differentiated 7 days
Description: as §2

male C57BL/6 mice = assay: ORG 43553 in male C57BL/6 mice, 9 weeks (Example 8, incl. replication cohort); assay type: in vivo, mouse
Description: Next, the LHCGR agonist ORG 43553 was injected into male C57BL/6 mice (N=24/group) (17 mg/kg, subcutaneous, twice-a-week) for 9 weeks.

mice on high-fat diet = assay: metabolic cages, mice on high-fat diet; assay type: in vivo, mouse; conditions: 17 mg/kg subcutaneous, monitored for 48 hours
Description: as §1

[5] = 17 mg/kg subcutaneous twice-a-week, 9 weeks

T1 sequence (P30730 27-700): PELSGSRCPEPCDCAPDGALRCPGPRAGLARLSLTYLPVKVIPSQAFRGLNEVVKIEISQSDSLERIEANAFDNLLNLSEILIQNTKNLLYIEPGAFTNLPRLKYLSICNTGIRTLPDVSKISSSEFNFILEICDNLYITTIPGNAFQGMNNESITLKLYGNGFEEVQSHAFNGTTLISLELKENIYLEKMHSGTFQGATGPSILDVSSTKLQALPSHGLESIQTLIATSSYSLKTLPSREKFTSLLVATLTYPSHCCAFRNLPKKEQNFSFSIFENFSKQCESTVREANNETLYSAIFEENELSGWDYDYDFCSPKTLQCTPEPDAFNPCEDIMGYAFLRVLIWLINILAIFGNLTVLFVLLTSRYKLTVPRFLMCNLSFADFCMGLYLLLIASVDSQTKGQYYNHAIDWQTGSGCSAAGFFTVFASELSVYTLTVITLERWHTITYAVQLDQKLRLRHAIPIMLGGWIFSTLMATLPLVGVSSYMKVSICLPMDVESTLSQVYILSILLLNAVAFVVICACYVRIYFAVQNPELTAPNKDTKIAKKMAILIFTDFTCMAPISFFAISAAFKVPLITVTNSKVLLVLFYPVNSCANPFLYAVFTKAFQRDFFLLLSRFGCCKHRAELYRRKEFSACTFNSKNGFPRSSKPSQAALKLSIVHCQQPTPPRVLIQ
Sequence of human LHCGR (P22888 27-699): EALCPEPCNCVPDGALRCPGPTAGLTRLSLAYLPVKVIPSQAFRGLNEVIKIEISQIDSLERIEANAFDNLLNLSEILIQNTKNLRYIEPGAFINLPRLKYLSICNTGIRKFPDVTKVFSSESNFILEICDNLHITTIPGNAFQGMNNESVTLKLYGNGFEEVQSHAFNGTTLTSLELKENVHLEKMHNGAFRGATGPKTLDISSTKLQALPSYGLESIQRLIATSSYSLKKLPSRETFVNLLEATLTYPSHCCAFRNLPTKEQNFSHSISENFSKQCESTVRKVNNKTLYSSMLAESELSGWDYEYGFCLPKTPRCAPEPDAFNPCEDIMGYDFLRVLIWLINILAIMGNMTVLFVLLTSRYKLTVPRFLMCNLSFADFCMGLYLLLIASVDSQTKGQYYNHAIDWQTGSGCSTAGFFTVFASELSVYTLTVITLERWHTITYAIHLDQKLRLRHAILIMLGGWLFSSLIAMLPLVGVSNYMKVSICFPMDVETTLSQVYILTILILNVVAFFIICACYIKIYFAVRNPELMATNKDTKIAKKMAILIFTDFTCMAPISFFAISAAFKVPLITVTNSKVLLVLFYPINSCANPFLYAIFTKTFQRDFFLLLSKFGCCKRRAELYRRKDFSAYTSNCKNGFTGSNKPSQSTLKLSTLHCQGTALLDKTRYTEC

With `CSc1nc(-c2cccc(NC(=O)CN3CCOCC3)c2)c2c(N)c(C(=O)NC(C)(C)C)sc2n1` [ORG 43553, 5-amino-2-methylsulfanyl-4-[3-(2-morpholin-4-yl-acetylamino)-phenyl]-thieno[2,3-d]pyrimidine-6-carboxylic acid tert-butylamide] the “oxygen consumption rate (OCR) at baseline” value (3T3-L1 adipocytes [1]) was “increased”, the “oxygen consumption rate (OCR) upon oligomycin exposure” value (3T3-L1 adipocytes [1]) was “increased” and the ERK1/2 phosphorylation (adipose LHCGR; differentiated 3T3-L1 adipocytes) was “rapidly induced ERK1/2 phosphorylation in a concentration-dependent manner”. The “ERK1/2 phosphorylation with LHCGR siRNA knockdown” value (adipose LHCGR; siLhcgr 3T3-L1 cells) was “no signal”, the “oil droplet accumulation (Oil Red O staining)” value (3T3-L1 adipocytes [2]) was “reduced oil droplet accumulation” and the diet-induced fat mass [3] was “reduced”. For the same compound, the gWAT weight [3] was “lower”, the iWAT weight [3] was “lower” and the lean mass [3] was “but not lean mass”. For the same compound, the mWAT weight [3] was “lower”, the total mass [3] was “reduced” and the EC50 (human LHCGR) was 3.7 nM. The “differentiated layer of organoids (thickness) compared to vehicle-treated organoids” value [4] was “substantial reduction”, the fat mass (male C57BL/6 mice; [5]) was “significant reduction” and the gWAT (male C57BL/6 mice; [5]) was “reduced”. The iWAT (male C57BL/6 mice; [5]) was “reduced”, the “number of adipocytes in iWAT with areas below 4000 μm^2” value (male C57BL/6 mice; [5]) was “greater numbers” and the “number of adipocytes in iWAT with areas greater than 4000 μm^2” value (male C57BL/6 mice; [5]) was “fewer”. For the same compound, the “renal WAT (rWAT)” value (male C57BL/6 mice; [5]) was “reduced”, the fat mass (male C57BL/6 mice; replication cohort) was “significant reduction” and the gWAT (male C57BL/6 mice; replication cohort) was “reduced”. The iWAT (male C57BL/6 mice; replication cohort) was “reduced”, the mWAT (male C57BL/6 mice; replication cohort) was “reduced” and the total mass (male C57BL/6 mice; replication cohort) was “significant reduction”. For the same compound, the “energy expenditure (EE)” value (mice on high-fat diet) was “increased acutely” and the “oxygen consumption (VO2)” value (mice on high-fat diet) was “increased acutely”.
